The solubility is the dissolved amount per volume that the medium holds. Low values mean little dissolved substance, high ones much dissolved substance.

A short description of this data set: aqueous solubility in buffer. In kind it is physicochemical. To be noted: buffer of pH 6.5 (close to the pH of the intestine). On the procedure: However, like many other HIV protease inhibitors, these compounds are characteristically lipophilic and thus poorly water soluble. For example, the compound of formula I has an aqueous solubility about 1 μg/ml in the buffer of pH 6.5 (close to the pH of the intestine), which is considered as extremely poor aqueous solubility and would be expected to provide very low oral bioavailability in the free acid form.

Each structure is given as a SMILES string.

Turning to `CCC[C@@]1(CCc2ccccc2)CC(O)=C([C@H](CC)c2cccc(NS(=O)(=O)c3ccc(C(F)(F)F)cn3)c2)C(=O)O1` [compound of formula I], the solubility was roughly 1 µg/mL.

The values are drawn from patent US6531139B1, “Self-emulsifying formulation for lipophilic compounds” (Pharmacia & Upjohn Company, priority 1997, dated 2003).
